The assay relates to TNF production or secretion in mouse peritoneal macrophages. As to the kind of experiment: Inhibitory effect on TNF production or secretion in mouse peritoneal macrophages (30 μM). The format is cell-based, mouse (BALB/c). To be noted: Mus musculus; 30 μM compound; LPS 10 μg/ml, 18 hours; TNF by L929 bioassay. As to the method: Inhibitory effect on TNF production or secretion in mouse peritoneal macrophages (In case drug concentration is 30 μM)
BALB/c mice (5 weeks old, female, Charles River Japan) were intraperitoneally injected with 1 ml of 3% thioglycollate broth. After 4 days, the mice were sacrificed. Peritoneal exudated cells (PECs) were collected from the peritoneal cavity by washing with minimum essential medium (hereinafter abbreviated as MEM, manufactured by Handai Biseibutubyo Kenkyukai, Osaka, Japan) containing 5 U/ml heparin and 1% fetal bovine serum (FBS, manufactured by GIBCO Laboratories Inc.). PECs were washed three times with MEM, suspended with MEM containing 10% FBS. After the viable cells were counted by exclusion of trypan blue dye, the suspension was adjusted at the final concentration of 2×10^6 cells/ml with MEM containing 10% FBS and seeded into a 96-well microplate (Costar, Cambridge, Mass., USA) at 2×10^5 cells/100 μl/well. The PECs were incubated for an hour at 37° C. in a humidified 5% CO2 incubator, and were washed twice with MEM warmed at 37° C. to remove non-adherent cells. Residual adherent cells were used as peritoneal macrophages. After the washing above, 50 μl each/well of MEM containing 10% FBS was added to each well and provided for use in the following experiment.
The powdery compound of the present invention was dissolved in dimethylsulfoxide in a concentration of 30 mM. The solution was then diluted with MEM containing 10% FBS in the final concentration of 30 μM. In the peritoneal macrophages obtained above, 50 μl each of the dilution was added to each well to make the total volume 100 μl. Thereafter 100 μl each of lipopolysaccharide (hereinafter abbreviated as LPS, E. coli 0111B4, manufactured by DIFCO, USA) was added to each well in the final concentration of 10 μg/ml. After the cells were incubated at 37° C. for 18 hours in a humidified 5% CO2 incubator, 25 μl of the supernatant in each well was collected.
The TNF activity in the supernatant collected was determined by bioassay using TNF-sensitive mouse fibroblast cell line L929 cells. That is, 100 μl each of MEM containing 10% FBS was added to each well of a 96-well microplate; using the resulting mixture, 25 μl of the collected supernatant was diluted to 5-fold dilution to final concentrations (concentrations after the following addition of L929 cell suspension) of 10%, 2%, 0.4% and 0.08%.
L929 cells were then suspended (4×10^5 cells/ml) in MEM containing 10% FBS and 1 μg/ml actinomycin D (Sigma Co.) and 100 μl each of the suspension was added to each well of the above microplate at 4×10^4 cells/well and cultured at 37° C. in a humidified 50% CO2. The viable cells were counted by partial modification of the MTT method reported in Monosann et al., T., J. Immunol. Method, 65, 55-63, 1983. The modified MTT method comprises the following steps. One mg/ml of 3-(4,5-dimethylthiazol-2-yl)-2,5-diphenyltetrazolium bromide (hereinafter abbreviated as MTT, manufactured by Sigma Co.) was dissolved in MEM, and 50 μl each of the solution was added to each well of the microplate above. After incubating the microplate for further 6 hours, the supernatant was discarded and 100 μl of 0.004N HCl-isopropyl alcohol and then 10 μl of 0.01% sodium laurylsulfate aqueous solution was added to each well. After shaking the 96-well microplate for a few minutes, the absorbance in each well was measured with a microplate reader (Corona Co.) at an absorption wavelength of 550 nm. The absorbance correlated to the count of the viable L929 cells and represented the TNF activity in the supernatant. The TNF activity was determined in terms of unit (U)/ml from the calibration curve of absorbance for the TNF activity obtained using mouse recombinant TNF α (TNF-M, manufactured by Genzyme Co.) as a standard. The activity of inhibiting TNF production of each compound, was determined by the following equation.
Inhibition of TNF production or secretion (%)=(1-TNF activity in the […]

Usually inhibition stands for the drop in the measured response relative to a control, in per cent.

Counter-ions that a name gives are not always drawn.

On to `CC(=O)N1C2Cc3cc4c(cc3C1Cc1cc3c(cc12)OCO3)OCO4` [Example 1, 15-acetyl-5,6,12,13-tetrahydrocycloocta[1,2-f:5,6-f']bis[1,3]benzodioxol-5,12-imine], for which the inhibition at 30 µM was 95%.
The result for `CCN1C2Cc3cc4c(cc3C1Cc1cc3c(cc12)OCO3)OCO4` [Example 2, 15-ethyl-5,6,12,13-tetrahydrocycloocta[1,2-f:5,6-f']bis[1,3]benzodioxol-5,12-imine hydrochloride] reads 72%; that for `c1coc(CN2C3Cc4cc5c(cc4C2Cc2cc4c(cc23)OCO4)OCO5)c1` [Example 3, 15-furfuryl-5,6,12,13-tetrahydrocycloocta[1,2-f:5,6-f']bis[1,3]benzodioxol-5,12-imine hydrochloride], -99%; that for `Fc1ccc(CCCN2C3Cc4cc5c(cc4C2Cc2cc4c(cc23)OCO4)OCO5)cc1` [Example 4, 15-[3-(4-fluorophenyl)propyl]-5,6,12,13-tetrahydrocycloocta[1,2-f:5,6-f']bis[1,3]benzodioxol-5,12-imine hydrochloride], 18%.
With `CC(=O)N1C2Cc3cc4c(cc3C1Cc1cc3c(cc12)OCCO3)OCCO4` [Example 5, 17-acetyl-6,7,14,15-tetrahydrocycloocta[1,2-g:5,6-g']bis[1,4]benzodioxan-6,14-imine], the inhibition at 30 µM turned out to be 64%.
As to `c1c2c(cc3c1OCO3)C1Cc3cc4c(cc3C(C2)N1)OCO4` [Example 13, 5,6,12,13-tetrahydrocycloocta-[1,2-f:5,6-f']bis[1,3]benzodioxol-5,12-imine], the inhibition at 30 µM came out at 78%.
On to `c1c2c(cc3c1OCCO3)C1Cc3cc4c(cc3C(C2)N1)OCCO4` [Example 14], for which the inhibition at 30 µM was determined as 63%.
With `CCC(=O)N1C2Cc3cc4c(cc3C1Cc1cc3c(cc12)OCO3)OCO4` [Example 17, 5,6,12,13-tetrahydro-15-propionylcycloocta-[1,2-f:5,6-f']bis[1,3]benzodioxol-5,12-imine], the inhibition at 30 µM worked out at 94%.
Take `CCCC(=O)N1C2Cc3cc4c(cc3C1Cc1cc3c(cc12)OCO3)OCO4` [Example 18]: the inhibition at 30 µM amounted to 86%.
On to `COCC(=O)N1C2Cc3cc4c(cc3C1Cc1cc3c(cc12)OCO3)OCO4` [Example 20], for which the inhibition at 30 µM came out at 92%.
The result for `CCOC(=O)C(=O)N1C2Cc3cc4c(cc3C1Cc1cc3c(cc12)OCO3)OCO4` [Example 21, 15-ethoxalyl-5,6,12,13-tetrahydrocycloocta[1,2-f:5,6-f']bis[1,3]benzodioxol-5,12-imine] reads 69%; that for `CCOC(=O)CC(=O)N1C2Cc3cc4c(cc3C1Cc1cc3c(cc12)OCO3)OCO4` [Example 22, 15-(ethoxycarbonylacetyl)-5,6,12,13-tetrahydrocycloocta[1,2-f:5,6-g']bis[1,3]benzodioxol-5,12-imine], 77%; that for `O=C(c1ccccc1)N1C2Cc3cc4c(cc3C1Cc1cc3c(cc12)OCO3)OCO4` [Example 23], 39%.
In the case of `CCOC(=O)N1C2Cc3cc4c(cc3C1Cc1cc3c(cc12)OCO3)OCO4` [Example 24], the inhibition at 30 µM was 68%.
Regarding `CCCCCOC(=O)N1C2Cc3cc4c(cc3C1Cc1cc3c(cc12)OCO3)OCO4` [Example 25], the inhibition at 30 µM is 46%.
Regarding `O=C(Oc1ccccc1)N1C2Cc3cc4c(cc3C1Cc1cc3c(cc12)OCO3)OCO4` [Example 26], the inhibition at 30 µM worked out at 27%.
The result for `CN1C2Cc3cc4c(cc3C1Cc1cc3c(cc12)OCO3)OCO4` [Example 27] reads 86%; that for `CC(C)CN1C2Cc3cc4c(cc3C1Cc1cc3c(cc12)OCO3)OCO4` [Example 31], 36%.
The value for `C=CCN1C2Cc3cc4c(cc3C1Cc1cc3c(cc12)OCO3)OCO4` [Example 32] was 12%; that for `C=CCCCN1C2Cc3cc4c(cc3C1Cc1cc3c(cc12)OCO3)OCO4` [Example 33] was -5%; that for `c1c2c(cc3c1OCO3)C1Cc3cc4c(cc3C(C2)N1CCN1CCCCC1)OCO4` [Example 34] was 56%.
The result for `OCCN1C2Cc3cc4c(cc3C1Cc1cc3c(cc12)OCO3)OCO4` [Example 35] reads 65%; that for `COC(=O)CCN1C2Cc3cc4c(cc3C1Cc1cc3c(cc12)OCO3)OCO4` [Example 36], -24%; that for `CCOC(=O)CN1C2Cc3cc4c(cc3C1Cc1cc3c(cc12)OCO3)OCO4` [Example 37], 19%.
Regarding `CCOC(=O)CCN1C2Cc3cc4c(cc3C1Cc1cc3c(cc12)OCO3)OCO4` [Example 38], the inhibition at 30 µM is 6%.
For the compound `N#CCCN1C2Cc3cc4c(cc3C1Cc1cc3c(cc12)OCO3)OCO4` [Example 39, 15-(2-cyanoethyl)-5,6,12,13-tetrahydrocycloocta[1,2-f:5,6-f']bis[1,3]benzodioxol-5,12-imine], the inhibition at 30 µM was -48%.
As for `O=CN1C2Cc3cc4c(cc3C1Cc1cc3c(cc12)OCO3)OCO4` [Example 40, 15-formyl-5,6,12,13-tetrahydrocycloocta[1,2-f:5,6-f']bis[1,3]benzodioxol-5,12-imine], the inhibition at 30 µM worked out at 84%.
Take `COCCN1C2Cc3cc4c(cc3C1Cc1cc3c(cc12)OCO3)OCO4` [Example 42, 5,6,12,13-tetrahydro-15-(2-methoxyethyl)cycloocta[1,2-f:5,6-f']bis[1,3]benzodioxol-5,12-imine]: the inhibition at 30 µM worked out at 11%.
The value for `CNC(=O)N1C2Cc3cc4c(cc3C1Cc1cc3c(cc12)OCO3)OCO4` [Example 44, 5,6,12,13-tetrahydro-15-(N-methylcarbamoyl)cycloocta[1,2-f:5,6-f']bis[1,3]benzodioxol-5,12-imine] was 90%; that for `O=C(O)CC(=O)N1C2Cc3cc4c(cc3C1Cc1cc3c(cc12)OCO3)OCO4` [Example 45, 15-(carboxyacetyl)-5,6,12,13-tetrahydrocycloocta[1,2-f:5,6-f']bis[1,3]benzodioxol-5,12-imine] was 15%; that for `O=C(O)C(=O)N1C2Cc3cc4c(cc3C1Cc1cc3c(cc12)OCO3)OCO4` [Example 46, 5,6,12,13-tetrahydro-15-oxalocycloocta[1,2-f:5,6-f']bis[1,3]benzodioxol-5,12-imine] was 6%.
Regarding `O=C(CCO)N1C2Cc3cc4c(cc3C1Cc1cc3c(cc12)OCO3)OCO4` [Example 47, 5,6,12,13-tetrahydro-15-(3-hydroxypropionyl)cycloocta[1,2-f:5,6-f']bis[1,3]benzodioxol-5,12-imine], the inhibition at 30 µM worked out at 83%.
Turning to `O=C(CO)N1C2Cc3cc4c(cc3C1Cc1cc3c(cc12)OCO3)OCO4` [Example 48, 15-glycoloyl-5,6,12,13-tetrahydrocycloocta[1,2-f:5,6-f']bis-[1,3]benzodioxol-5,12-imine], the inhibition at 30 µM came to 85%.
The result for `NCCN1C2Cc3cc4c(cc3C1Cc1cc3c(cc12)OCO3)OCO4` [Example 50, 15-(2-aminoethyl)-5,6,12,13-tetrahydrocycloocta[1,2-f:5,6-f']bis[1,3]benzodioxol-5,12-imine] reads 64%.
`NCCCCN1C2Cc3cc4c(cc3C1Cc1cc3c(cc12)OCO3)OCO4` [Example 51, 15-(4-aminobutyl)-5,6,12,13-tetrahydrocycloocta[1,2-f:5,6-f']bis[1,3]benzodioxol-5,12-imine]: the inhibition at 30 µM is -44%.

The record behind these values is US5648359A, “Tumor necrosis factor production inhibitors” (Sumitomo Pharmaceuticals Company, Limited, priority 1993, dated 1997).
